What was measured:
[1] = target: Prostaglandin G/H synthase 1 (Homo sapiens, UniProt P23219); test: biochemical; type: tissue-based, Platelet; details: platelet;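 further: inhibition of COX-1 enzyme activity, with arachidonic acid supplied as substrate; in other assays of this panel Not Active means under 50% inhibition at 10 µM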
[2] = target: T1, Cysteinyl leukotriene receptor 1 (Homo sapiens, UniProt Q9Y271); type: cell membranes, CHO-K1, Membrane; details: cho-k1; further: in other assays of this panel Not Active means under 50% inhibition at 10 µM
T1 sequence (Q9Y271 whole entry): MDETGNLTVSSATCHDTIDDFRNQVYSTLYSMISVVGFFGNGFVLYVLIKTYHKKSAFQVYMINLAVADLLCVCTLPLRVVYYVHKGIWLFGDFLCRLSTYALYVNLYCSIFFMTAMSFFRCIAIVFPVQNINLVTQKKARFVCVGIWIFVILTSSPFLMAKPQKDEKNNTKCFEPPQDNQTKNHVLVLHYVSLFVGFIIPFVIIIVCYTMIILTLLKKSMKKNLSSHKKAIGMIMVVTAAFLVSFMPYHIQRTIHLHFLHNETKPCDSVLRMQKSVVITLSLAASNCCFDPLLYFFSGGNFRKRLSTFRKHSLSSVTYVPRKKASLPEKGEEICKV

Neutrophil elastase = target: T2, Neutrophil elastase (Homo sapiens, UniProt P08246); type: tissue-based;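 further: inhibition of neutrophil elastase enzyme activity, measured with a p-nitroanilide-linked peptide substrate; in other assays of this panel Not Active means under 50% inhibition at 10 µM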
T2 sequence (P08246 whole entry): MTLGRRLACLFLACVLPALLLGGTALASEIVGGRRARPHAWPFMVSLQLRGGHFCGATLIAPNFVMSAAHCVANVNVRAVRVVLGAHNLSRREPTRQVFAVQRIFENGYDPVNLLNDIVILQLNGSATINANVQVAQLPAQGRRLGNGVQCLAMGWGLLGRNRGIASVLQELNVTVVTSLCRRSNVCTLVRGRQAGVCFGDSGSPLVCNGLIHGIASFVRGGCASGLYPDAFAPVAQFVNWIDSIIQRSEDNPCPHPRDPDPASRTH

[3] = target: Mitogen-activated protein kinase 3 (Homo sapiens, UniProt P27361); test: DRUGMATRIX: Protein Serine/Threonine Kinase, ERK1 enzyme inhibition (substrate: Myelin Basic Protein); set-up: species or system Escherichia coli; details: Not Active = under 50% inhibition at 10 µM
[4] = target: 5-hydroxytryptamine receptor 1B (Rattus norvegicus, UniProt P28564); type: cell membranes, Wistar, Cerebral cortex, Membrane; further: in other assays of this panel Not Active means under 50% inhibition at 10 µM
Cytochrome P450 2C19 = Cytochrome P450 2C19 (Homo sapiens, UniProt P33261); details: bti-tn-5b1-4; further: in other assays of this panel Not Active means under 50% inhibition at 10 µM
[5] = target: Voltage-gated inwardly rectifying potassium channel KCNH2 (Homo sapiens, UniProt Q12809); details: hek293; further: in other assays of this panel Not Active means under 50% inhibition at 10 µM
Voltage-gated inwardly rectifying potassium channel KCNH2, sequence (Q12809 whole entry): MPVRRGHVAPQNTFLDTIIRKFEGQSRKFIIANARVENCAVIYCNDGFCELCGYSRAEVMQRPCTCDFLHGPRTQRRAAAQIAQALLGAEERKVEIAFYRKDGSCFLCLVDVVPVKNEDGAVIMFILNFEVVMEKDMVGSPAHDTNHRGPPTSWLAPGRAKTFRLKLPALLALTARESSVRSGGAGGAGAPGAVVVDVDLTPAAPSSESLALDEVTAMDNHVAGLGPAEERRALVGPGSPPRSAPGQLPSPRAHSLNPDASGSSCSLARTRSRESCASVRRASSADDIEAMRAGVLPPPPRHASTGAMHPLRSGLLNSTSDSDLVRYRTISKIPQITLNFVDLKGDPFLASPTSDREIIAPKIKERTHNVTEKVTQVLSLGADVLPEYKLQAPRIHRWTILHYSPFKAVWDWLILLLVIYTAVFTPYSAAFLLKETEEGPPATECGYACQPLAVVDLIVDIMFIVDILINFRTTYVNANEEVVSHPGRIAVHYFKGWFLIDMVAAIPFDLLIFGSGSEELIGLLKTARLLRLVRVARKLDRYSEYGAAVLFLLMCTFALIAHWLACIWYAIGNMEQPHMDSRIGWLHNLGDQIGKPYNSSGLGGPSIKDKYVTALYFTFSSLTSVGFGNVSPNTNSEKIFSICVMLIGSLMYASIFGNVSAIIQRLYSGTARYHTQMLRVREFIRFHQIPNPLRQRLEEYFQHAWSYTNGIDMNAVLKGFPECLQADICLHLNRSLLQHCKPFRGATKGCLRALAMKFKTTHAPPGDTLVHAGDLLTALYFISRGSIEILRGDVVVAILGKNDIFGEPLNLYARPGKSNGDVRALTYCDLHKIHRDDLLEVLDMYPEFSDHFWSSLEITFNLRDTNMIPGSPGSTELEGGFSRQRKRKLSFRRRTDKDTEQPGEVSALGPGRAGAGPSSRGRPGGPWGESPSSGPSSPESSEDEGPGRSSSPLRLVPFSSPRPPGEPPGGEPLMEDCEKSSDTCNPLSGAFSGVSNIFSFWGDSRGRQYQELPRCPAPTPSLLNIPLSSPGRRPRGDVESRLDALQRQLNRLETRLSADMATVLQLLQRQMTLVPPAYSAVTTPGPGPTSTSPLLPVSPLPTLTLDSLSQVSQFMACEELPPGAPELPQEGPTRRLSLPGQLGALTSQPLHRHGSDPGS

Cytochrome P450 2C19, sequence (P33261 whole entry): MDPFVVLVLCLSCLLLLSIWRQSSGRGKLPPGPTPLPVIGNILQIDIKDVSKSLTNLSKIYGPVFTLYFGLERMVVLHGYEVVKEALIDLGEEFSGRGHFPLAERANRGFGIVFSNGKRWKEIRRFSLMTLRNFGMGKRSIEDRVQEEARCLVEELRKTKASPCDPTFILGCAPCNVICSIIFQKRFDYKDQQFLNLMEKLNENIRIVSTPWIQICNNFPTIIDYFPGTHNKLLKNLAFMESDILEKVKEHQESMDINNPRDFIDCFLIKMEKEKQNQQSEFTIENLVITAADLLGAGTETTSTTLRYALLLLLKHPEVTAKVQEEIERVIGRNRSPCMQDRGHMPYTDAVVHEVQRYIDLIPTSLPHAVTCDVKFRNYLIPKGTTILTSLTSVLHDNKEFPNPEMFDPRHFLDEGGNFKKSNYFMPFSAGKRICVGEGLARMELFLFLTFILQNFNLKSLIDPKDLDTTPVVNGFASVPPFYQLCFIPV
5-hydroxytryptamine receptor 1B, sequence (P28564 whole entry): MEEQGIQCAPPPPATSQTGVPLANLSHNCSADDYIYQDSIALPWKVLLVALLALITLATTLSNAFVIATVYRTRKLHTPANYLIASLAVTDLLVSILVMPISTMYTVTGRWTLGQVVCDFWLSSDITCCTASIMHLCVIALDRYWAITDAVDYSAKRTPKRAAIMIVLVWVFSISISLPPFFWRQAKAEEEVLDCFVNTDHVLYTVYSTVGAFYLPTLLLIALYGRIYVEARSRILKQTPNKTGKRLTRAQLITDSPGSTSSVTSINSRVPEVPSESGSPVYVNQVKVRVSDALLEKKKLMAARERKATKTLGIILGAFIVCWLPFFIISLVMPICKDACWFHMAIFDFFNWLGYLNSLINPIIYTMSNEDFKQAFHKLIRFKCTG
Mitogen-activated protein kinase 3, sequence (P27361 whole entry): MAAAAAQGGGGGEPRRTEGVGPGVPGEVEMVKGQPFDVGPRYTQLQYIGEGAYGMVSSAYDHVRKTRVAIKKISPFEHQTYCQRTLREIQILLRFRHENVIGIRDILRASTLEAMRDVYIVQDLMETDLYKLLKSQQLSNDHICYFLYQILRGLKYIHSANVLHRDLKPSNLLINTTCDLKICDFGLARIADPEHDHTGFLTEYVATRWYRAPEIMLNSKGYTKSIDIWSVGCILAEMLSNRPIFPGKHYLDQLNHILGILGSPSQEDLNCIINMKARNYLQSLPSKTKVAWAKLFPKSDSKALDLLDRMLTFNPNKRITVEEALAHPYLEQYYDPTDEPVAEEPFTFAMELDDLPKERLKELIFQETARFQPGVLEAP
Prostaglandin G/H synthase 1, sequence (P23219 whole entry): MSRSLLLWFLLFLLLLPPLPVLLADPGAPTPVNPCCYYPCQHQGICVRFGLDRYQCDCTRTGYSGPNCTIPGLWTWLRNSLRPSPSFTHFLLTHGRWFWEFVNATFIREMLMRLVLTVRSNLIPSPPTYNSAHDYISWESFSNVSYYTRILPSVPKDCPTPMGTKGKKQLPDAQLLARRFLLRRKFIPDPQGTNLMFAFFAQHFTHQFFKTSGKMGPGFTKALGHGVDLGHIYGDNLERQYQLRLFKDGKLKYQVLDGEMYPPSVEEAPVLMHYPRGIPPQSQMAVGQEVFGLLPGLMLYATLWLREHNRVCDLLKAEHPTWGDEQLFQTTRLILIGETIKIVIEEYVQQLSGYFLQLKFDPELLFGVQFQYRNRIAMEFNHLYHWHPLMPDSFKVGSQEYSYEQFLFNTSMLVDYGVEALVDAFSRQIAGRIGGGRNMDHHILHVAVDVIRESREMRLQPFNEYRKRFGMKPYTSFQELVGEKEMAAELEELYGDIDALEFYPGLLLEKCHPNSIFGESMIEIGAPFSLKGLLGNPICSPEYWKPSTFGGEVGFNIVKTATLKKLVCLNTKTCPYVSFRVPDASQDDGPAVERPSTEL

Molecule | IC50 [1] | IC50 [2] | IC50 (Neutrophil elastase) | IC50 [3] | IC50 [4] | IC50 (Cytochrome P450 2C19) | Ki (Cytochrome P450 2C19) | IC50 [5] | Ki [5] | IC50 ([4]; read-out: IC50) [µM] | Ki ([4]; read-out: Ki) [µM] | Ki [1] | Ki [2] | Ki (Neutrophil elastase) | Ki [3] | Ki [4]
C[C@]12CCC(=O)C=C1CC[C@@H]1[C@@H]2CC[C@@]2(C)[C@H]1CC[C@]2(C)O [METHYLTESTOSTERONE] | Not Active | Not Active | Not Active | Not Active | Not Active | Not Active | Not Active | Not Active | Not Active | – | – | – | – | – | – | –
Cc1ccccc1N1C(=O)c2cc(S(N)(=O)=O)c(Cl)cc2NC1C (centres undefined) [METOLAZONE] | Not Active | Not Active | Not Active | Not Active | Not Active | Not Active | Not Active | Not Active | Not Active | – | – | – | – | – | – | –
NC1=NC(=O)C(c2ccccc2)O1 (centres undefined) [PEMOLINE] | Not Active | Not Active | Not Active | Not Active | Not Active | Not Active | Not Active | Not Active | Not Active | – | – | – | – | – | – | –
Nc1nc2c(ncn2CCC(CO)CO)c(=O)[nH]1 [PENCICLOVIR] | Not Active | Not Active | Not Active | Not Active | Not Active | Not Active | Not Active | Not Active | Not Active | – | – | – | – | – | – | –
C=C(C)C1(O)OC(=O)C=C1OC (centres undefined) [PENICILLIC ACID] | Not Active | Not Active | Not Active | Not Active | Not Active | Not Active | Not Active | Not Active | Not Active | – | – | – | – | – | – | –
CCCN1C[C@H](CSC)C[C@@H]2c3cccc4[nH]cc(c34)C[C@H]21 [PERGOLIDE] | Not Active | Not Active | Not Active | Not Active | – | Not Active | Not Active | Not Active | Not Active | 0.087 | 0.04 | – | – | – | – | –
C1CCC(C(CC2CCCCN2)C2CCCCC2)CC1 (centres undefined) [PERHEXILINE] | Not Active | Not Active | Not Active | Not Active | Not Active | Not Active | Not Active | Not Active | Not Active | – | – | – | – | – | – | –
CNNCc1ccc(C(=O)NC(C)C)cc1 [PROCARBAZINE] | Not Active | Not Active | Not Active | Not Active | Not Active | Not Active | Not Active | Not Active | Not Active | – | – | – | – | – | – | –
CC(O)CO (centres undefined) [PROPYLENE GLYCOL] | Not Active | Not Active | Not Active | Not Active | Not Active | Not Active | Not Active | Not Active | Not Active | – | – | – | – | – | – | –
CADMIUM ACETATE | Not Active | Not Active | Not Active | Not Active | Not Active | Not Active | Not Active | Not Active | Not Active | – | – | Not Active | Not Active | Not Active | Not Active | Not Active
LEAD (II) ACETATE | Not Active | Not Active | Not Active | Not Active | Not Active | Not Active | Not Active | Not Active | Not Active | – | – | Not Active | Not Active | Not Active | Not Active | Not Active
LIPOPOLYSACCHARIDE E. COLI O55:B5 | Not Active | Not Active | Not Active | Not Active | Not Active | Not Active | Not Active | Not Active | Not Active | – | – | Not Active | Not Active | Not Active | Not Active | Not Active
